Test results as given in patent US20240158446A1, “CYCLIC COMPOUND HAVING SELECTIVE INHIBITORY ACTION ON KRAS OVER HRAS AND NRAS” (CHUGAI SEIYAKU KABUSHIKI KAISHA, priority 2021, published 2024).

Legend:
[1] = biological target: GDP-bound KRAS wild-type protein (Homo sapiens, UniProt P01116); assay: Binding to KRAS by surface plasmon resonance (SPR), Single Cycle Kinetics; conditions: SPR Single Cycle Kinetics, GDP-bound KRAS wild-type protein, 1:1 binding model; read-out: KRAS KD
[2] = biological target: GDP-bound HRAS wild-type protein (Homo sapiens, UniProt P01112); assay: Binding to HRAS by surface plasmon resonance (SPR), Single Cycle Kinetics; conditions: SPR KD ratio HRAS/KRAS, class symbols
Sequence of GDP-bound HRAS wild-type protein (P01112 whole entry): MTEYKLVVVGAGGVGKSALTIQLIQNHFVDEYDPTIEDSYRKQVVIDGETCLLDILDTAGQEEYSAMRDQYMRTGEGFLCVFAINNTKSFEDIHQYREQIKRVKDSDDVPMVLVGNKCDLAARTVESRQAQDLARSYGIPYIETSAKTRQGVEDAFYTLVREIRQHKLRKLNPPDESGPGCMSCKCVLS

[3] = system: human lung cancer strain NCI-H441;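 note: cell proliferation inhibition after four days measured by CellTiter-Glo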
[4] = biological target: GDP-bound NRAS wild-type protein (Homo sapiens, UniProt P01111); assay: Binding to NRAS by surface plasmon resonance (SPR), Single Cycle Kinetics; conditions: SPR KD ratio NRAS/KRAS, class symbols
Sequence of GDP-bound NRAS wild-type protein (P01111 whole entry): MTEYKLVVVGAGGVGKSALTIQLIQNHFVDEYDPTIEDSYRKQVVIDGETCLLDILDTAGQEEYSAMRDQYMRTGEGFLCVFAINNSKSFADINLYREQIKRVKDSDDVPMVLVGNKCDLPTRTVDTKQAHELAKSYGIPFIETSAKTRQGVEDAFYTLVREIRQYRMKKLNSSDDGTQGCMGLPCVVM

Sequence of GDP-bound KRAS wild-type protein (P01116 whole entry): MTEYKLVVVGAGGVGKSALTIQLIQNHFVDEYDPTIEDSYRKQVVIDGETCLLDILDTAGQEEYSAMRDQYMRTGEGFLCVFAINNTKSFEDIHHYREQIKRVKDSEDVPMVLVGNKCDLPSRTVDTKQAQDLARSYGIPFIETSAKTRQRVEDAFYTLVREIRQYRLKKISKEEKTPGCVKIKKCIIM

CCO[C@@H]1C[C@H]2C(=O)NC3(CC(C)(C)C3)C(=O)N(C)[C@@H](C3CCCCC3)C(=O)N(C)[C@H](C(=O)N(C)C)CC(=O)N(C)[C@@H](COC)C(=O)N[C@@H]([C@@H](C)CC)C(=O)N(C)CC(=O)N(C)[C@H]3C/C=C\CCN(C3=O)[C@@H](Cc3ccc(C(F)(F)F)cc3)C(=O)N(C)CC(=O)N[C@@H](CCc3ccc(Cl)c(Cl)c3)C(=O)N2C1 [PP2661]
Kd [1]: 0.27 nM
HRAS/KRAS (ratio of KD value with respect to GDP-bound HRAS wild-type protein to KD value with respect to KRAS) [2]: A (a compound having 10 or more and less than 20 is denoted as A)
IC50 [3]: 13.4 nM
NRAS/KRAS (ratio of KD value with respect to GDP-bound NRAS wild-type protein to KD value with respect to KRAS) [4]: AA (a compound having 20 or more is denoted as AA)

CC[C@H](C)[C@@H]1NC(=O)[C@H](COC)N(C)C(=O)C[C@@H](C(=O)N(C)C)N(C)C(=O)[C@H](C2CCCCC2)N(C)C(=O)C2(CC(C)(C)C2)NC(=O)[C@@H]2C[C@@H](OC(C)C)CN2C(=O)[C@H](CCc2ccc(Cl)c(Cl)c2)NC(=O)CN(C)C(=O)[C@H](Cc2ccc(C(F)(F)F)cc2)N2CC/C=C\C[C@@H](C2=O)N(C)C(=O)CN(C)C1=O [PP2662]
Kd [1]: 0.29 nM
HRAS/KRAS (ratio of KD value with respect to GDP-bound HRAS wild-type protein to KD value with respect to KRAS) [2]: A (a compound having 10 or more and less than 20 is denoted as A)
IC50 [3]: 13.1 nM
NRAS/KRAS (ratio of KD value with respect to GDP-bound NRAS wild-type protein to KD value with respect to KRAS) [4]: AA (a compound having 20 or more is denoted as AA)

CC[C@H](C)[C@@H]1NC(=O)[C@H](COC)N(C)C(=O)C[C@@H](C(=O)N2CCCCC2)N(C)C(=O)[C@H](C2CCCC2)N(C)C(=O)C2(CC(C)(C)C2)NC(=O)[C@@H]2C[C@@H](OC3CCC3)CN2C(=O)[C@H](CCc2cc(F)c(C(F)(F)F)c(F)c2)NC(=O)CN(C)C(=O)[C@H](Cc2ccc(C(F)(F)F)cc2)N2CC/C=C\C[C@@H](C2=O)N(C)C(=O)CN(C)C1=O [PP2664]
Kd [1]: 0.37 nM
HRAS/KRAS (ratio of KD value with respect to GDP-bound HRAS wild-type protein to KD value with respect to KRAS) [2]: B (a compound having 3 or more and less than 10 is denoted as B)
IC50 [3]: 19.8 nM
NRAS/KRAS (ratio of KD value with respect to GDP-bound NRAS wild-type protein to KD value with respect to KRAS) [4]: A (a compound having 10 or more and less than 20 is denoted as A)

CC[C@H](C)[C@@H]1NC(=O)[C@H](COC)N(C)C(=O)C[C@@H](C(=O)N2CCCCC2)N(C)C(=O)[C@H](C2CCCC2)N(C)C(=O)C2(CC(C)(C)C2)NC(=O)[C@@H]2C[C@@H](OC3CCCC3)CN2C(=O)[C@H](CCc2cc(F)c(C(F)(F)F)c(F)c2)NC(=O)CN(C)C(=O)[C@H](Cc2ccc(C(F)(F)F)cc2)N2CC/C=C\C[C@@H](C2=O)N(C)C(=O)CN(C)C1=O [PP2665]
Kd [1]: 0.56 nM
HRAS/KRAS (ratio of KD value with respect to GDP-bound HRAS wild-type protein to KD value with respect to KRAS) [2]: A (a compound having 10 or more and less than 20 is denoted as A)
IC50 [3]: 23.4 nM
NRAS/KRAS (ratio of KD value with respect to GDP-bound NRAS wild-type protein to KD value with respect to KRAS) [4]: A (a compound having 10 or more and less than 20 is denoted as A)

CCO[C@@H]1C[C@H]2C(=O)NC3(CC(C)(C)C3)C(=O)N(C)[C@@H](C3CCCC3)C(=O)N(C)[C@H](C(=O)N3CCCCC3)CC(=O)N(C)[C@@H](COC)C(=O)N[C@@H]([C@@H](C)CC)C(=O)N(C3CC3)CC(=O)N(C)[C@H]3C/C=C\CCN(C3=O)[C@@H](Cc3ccc(C(F)(F)F)cc3)C(=O)N(C)CC(=O)N[C@@H](CCc3cc(F)c(C(F)(F)F)c(F)c3)C(=O)N2C1 [PP2666]
Kd [1]: 0.72 nM
HRAS/KRAS (ratio of KD value with respect to GDP-bound HRAS wild-type protein to KD value with respect to KRAS) [2]: AA (a compound having 20 or more is denoted as AA)
IC50 [3]: 28.6 nM
NRAS/KRAS (ratio of KD value with respect to GDP-bound NRAS wild-type protein to KD value with respect to KRAS) [4]: AA (a compound having 20 or more is denoted as AA)

CC[C@H](C)[C@@H]1NC(=O)[C@H](COC)N(C)C(=O)C[C@@H](C(=O)N2CCCCC2)N(C)C(=O)[C@H](C2CCCC2)N(C)C(=O)C2(CC(C)(C)C2)NC(=O)[C@@H]2C[C@@H](OC(C)C)CN2C(=O)[C@H](CCc2cc(F)c(C(F)(F)F)c(F)c2)NC(=O)CN(C)C(=O)[C@H](Cc2ccc(C(F)(F)F)cc2)N2CC/C=C\C[C@@H](C2=O)N(C)C(=O)CN(C2CC2)C1=O [PP2667]
Kd [1]: 1.8 nM
HRAS/KRAS (ratio of KD value with respect to GDP-bound HRAS wild-type protein to KD value with respect to KRAS) [2]: A (a compound having 10 or more and less than 20 is denoted as A)
IC50 [3]: 30.6 nM
NRAS/KRAS (ratio of KD value with respect to GDP-bound NRAS wild-type protein to KD value with respect to KRAS) [4]: A (a compound having 10 or more and less than 20 is denoted as A)

CCO[C@@H]1C[C@H]2C(=O)NC3(CC(C)(C)C3)C(=O)N(C)[C@@H](C3CCCC3)C(=O)N(C)[C@H](C(=O)N3CCCCC3)CC(=O)N(C)[C@@H](COC)C(=O)N[C@@H]([C@@H](C)CC)C(=O)N(C)CC(=O)N(C)[C@H]3C/C=C\CCN(C3=O)[C@@H](Cc3ccc(C)cc3)C(=O)N(C)CC(=O)N[C@@H](CCc3cc(F)c(C(F)(F)F)c(F)c3)C(=O)N2C1 [PP2668]
Kd [1]: 0.18 nM
HRAS/KRAS (ratio of KD value with respect to GDP-bound HRAS wild-type protein to KD value with respect to KRAS) [2]: A (a compound having 10 or more and less than 20 is denoted as A)
IC50 [3]: 10.3 nM
NRAS/KRAS (ratio of KD value with respect to GDP-bound NRAS wild-type protein to KD value with respect to KRAS) [4]: A (a compound having 10 or more and less than 20 is denoted as A)

CC[C@H](C)[C@@H]1NC(=O)[C@H](COC)N(C)C(=O)C[C@@H](C(=O)N2CCCCC2)N(C)C(=O)[C@H](C2CCCC2)N(C)C(=O)C2(CC(C)(C)C2)NC(=O)[C@@H]2C[C@@H](OC(C)C)CN2C(=O)[C@H](CCc2cc(F)c(C(F)(F)F)c(F)c2)NC(=O)CN(C)C(=O)[C@H](Cc2ccc(C)cc2)N2CC/C=C\C[C@@H](C2=O)N(C)C(=O)CN(C)C1=O [PP2669]
Kd [1]: 0.29 nM
HRAS/KRAS (ratio of KD value with respect to GDP-bound HRAS wild-type protein to KD value with respect to KRAS) [2]: A (a compound having 10 or more and less than 20 is denoted as A)
IC50 [3]: 18.7 nM
NRAS/KRAS (ratio of KD value with respect to GDP-bound NRAS wild-type protein to KD value with respect to KRAS) [4]: A (a compound having 10 or more and less than 20 is denoted as A)

CCO[C@@H]1C[C@H]2C(=O)NC3(CC(C)(C)C3)C(=O)N(C)[C@@H](C3CCCC3)C(=O)N(C)[C@H](C(=O)N3CCCCC3)CC(=O)N(C)[C@@H](COC)C(=O)N[C@@H]([C@@H](C)CC)C(=O)N(C)CC(=O)N(C)[C@H]3C/C=C\CCN(C3=O)[C@@H](Cc3ccc(C(F)(F)F)cc3)C(=O)N(C)CC(=O)N[C@@H](CCc3ccc(Cl)c(Cl)c3)C(=O)N2C1 [PP2670]
Kd [1]: 0.48 nM
HRAS/KRAS (ratio of KD value with respect to GDP-bound HRAS wild-type protein to KD value with respect to KRAS) [2]: A (a compound having 10 or more and less than 20 is denoted as A)
IC50 [3]: 25.2 nM
NRAS/KRAS (ratio of KD value with respect to GDP-bound NRAS wild-type protein to KD value with respect to KRAS) [4]: AA (a compound having 20 or more is denoted as AA)

CC[C@H](C)[C@@H]1NC(=O)[C@H](COC)N(C)C(=O)C[C@@H](C(=O)N2CCCCC2)N(C)C(=O)[C@H](C2CCCC2)N(C)C(=O)C2(CC(C)(C)C2)NC(=O)[C@@H]2C[C@@H](OC(C)C)CN2C(=O)[C@H](CCc2ccc(Cl)c(Cl)c2)NC(=O)CN(C)C(=O)[C@H](Cc2ccc(C(F)(F)F)cc2)N2CC/C=C\C[C@@H](C2=O)N(C)C(=O)CN(C)C1=O [PP2671]
Kd [1]: 0.67 nM
HRAS/KRAS (ratio of KD value with respect to GDP-bound HRAS wild-type protein to KD value with respect to KRAS) [2]: A (a compound having 10 or more and less than 20 is denoted as A)
IC50 [3]: 26.3 nM
NRAS/KRAS (ratio of KD value with respect to GDP-bound NRAS wild-type protein to KD value with respect to KRAS) [4]: A (a compound having 10 or more and less than 20 is denoted as A)

CCC[C@H]1C(=O)N[C@@H]([C@@H](C)CC)C(=O)N(C)CC(=O)N(C)[C@H]2C/C=C\CCN(C2=O)[C@@H](Cc2ccc(C)cc2)C(=O)N(C)CC(=O)N[C@@H](CCc2cc(F)c(C(F)(F)F)c(F)c2)C(=O)N2C[C@H](OCC)C[C@H]2C(=O)NC2(CC(C)(C)C2)C(=O)N(C)[C@@H](CC(C)(C)C)C(=O)N(C)[C@H](C(=O)N(C)C)CC(=O)N1C [PP2706]
Kd [1]: 0.076 nM
HRAS/KRAS (ratio of KD value with respect to GDP-bound HRAS wild-type protein to KD value with respect to KRAS) [2]: B (a compound having 3 or more and less than 10 is denoted as B)
IC50 [3]: 2.3 nM
NRAS/KRAS (ratio of KD value with respect to GDP-bound NRAS wild-type protein to KD value with respect to KRAS) [4]: A (a compound having 10 or more and less than 20 is denoted as A)

CCCOC[C@H]1C(=O)N[C@@H]([C@@H](C)CC)C(=O)N(C)CC(=O)N(C)[C@H]2C/C=C\CCN(C2=O)[C@@H](Cc2ccc(C)cc2)C(=O)N(C)CC(=O)N[C@@H](CCc2cc(F)c(C(F)(F)F)c(F)c2)C(=O)N2C[C@H](OCC)C[C@H]2C(=O)NC2(CC(C)(C)C2)C(=O)N(C)[C@@H](CC(C)(C)C)C(=O)N(C)[C@H](C(=O)N(C)C)CC(=O)N1C [PP2708]
Kd [1]: 0.072 nM
HRAS/KRAS (ratio of KD value with respect to GDP-bound HRAS wild-type protein to KD value with respect to KRAS) [2]: A (a compound having 10 or more and less than 20 is denoted as A)
IC50 [3]: 5.1 nM
NRAS/KRAS (ratio of KD value with respect to GDP-bound NRAS wild-type protein to KD value with respect to KRAS) [4]: A (a compound having 10 or more and less than 20 is denoted as A)

CCC[C@H]1C(=O)N[C@@H]([C@@H](C)CC)C(=O)N(C)CC(=O)N(C)[C@H]2C/C=C\CCN(C2=O)[C@@H](Cc2ccc(C)cc2)C(=O)N(C)CC(=O)N[C@@H](CCc2ccc(C(F)(F)F)c(OC)c2)C(=O)N2C[C@H](OCC)C[C@H]2C(=O)NC2(CC(C)(C)C2)C(=O)N(C)[C@@H](CC(C)(C)C)C(=O)N(C)[C@H](C(=O)N(C)C)CC(=O)N1C [PP2710]
Kd [1]: 0.1 nM
HRAS/KRAS (ratio of KD value with respect to GDP-bound HRAS wild-type protein to KD value with respect to KRAS) [2]: B (a compound having 3 or more and less than 10 is denoted as B)
IC50 [3]: 5.3 nM
NRAS/KRAS (ratio of KD value with respect to GDP-bound NRAS wild-type protein to KD value with respect to KRAS) [4]: B (a compound having 3 or more and less than 10 is denoted as B)
